Where a name gives a salt, the structure may show the parent alone.
These compounds were tested against T1, Smoothened (SMO) (Mus musculus, UniProt P56726) (assay: Smoothened (SMO)/Sonic Hedgehog (SHh) Transient Transcriptional Activation Assay (Gli-luciferase reporter in C3H10T1/2 cells)). Conditions: C3H 10T1/2, 2 μM compound; transfected C3H10T1/2 cells, recombinant human SHh 250 ng/mL, 20 hours, luciferase readout; read-out: SMO CELL % INHIBITION @ 2 μM.
T1 construct: C3H10T1/2 cells (ATCC #CCL-226) were split and seeded; endogenous in cells; host or cells: C3H10T1/2 (ATCC #CCL-226)
Format: cell-based, murine
Method in brief: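 C3H10T1/2 cells transiently transfected with a murine Gli-responsive firefly luciferase reporter plus pEGFP were serum-starved 20 h in 0.5% calf serum. Compound (2 μM to 2 nM final) was added with recombinant human SHh at 250 ng/mL final for 20 h at 37 °C. Read-out was Dual-Glo luminescence.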

T1 sequence (P56726 33-793): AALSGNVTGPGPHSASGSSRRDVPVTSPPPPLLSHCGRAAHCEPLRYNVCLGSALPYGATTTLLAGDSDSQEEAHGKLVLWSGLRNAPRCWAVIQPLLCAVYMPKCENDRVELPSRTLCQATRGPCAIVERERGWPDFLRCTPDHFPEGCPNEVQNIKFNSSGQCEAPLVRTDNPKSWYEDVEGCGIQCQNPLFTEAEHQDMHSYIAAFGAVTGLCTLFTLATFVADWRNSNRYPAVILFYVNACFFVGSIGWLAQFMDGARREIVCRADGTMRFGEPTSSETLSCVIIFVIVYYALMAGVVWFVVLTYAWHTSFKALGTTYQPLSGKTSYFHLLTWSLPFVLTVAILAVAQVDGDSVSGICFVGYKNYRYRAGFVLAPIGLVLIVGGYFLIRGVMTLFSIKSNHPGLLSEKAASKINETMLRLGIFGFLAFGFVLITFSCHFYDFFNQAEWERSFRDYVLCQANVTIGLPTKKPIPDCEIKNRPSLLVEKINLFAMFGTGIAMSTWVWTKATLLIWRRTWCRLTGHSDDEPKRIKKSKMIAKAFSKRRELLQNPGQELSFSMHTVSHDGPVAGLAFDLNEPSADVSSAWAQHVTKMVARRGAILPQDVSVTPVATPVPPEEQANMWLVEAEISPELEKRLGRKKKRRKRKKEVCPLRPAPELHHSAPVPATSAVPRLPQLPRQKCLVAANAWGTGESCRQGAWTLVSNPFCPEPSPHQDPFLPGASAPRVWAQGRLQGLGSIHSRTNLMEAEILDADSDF

Compound | inhibition at 2 µM [%]
Cc1cncc(NC(=O)N[C@@H]2CCN(C)[C@@H](c3nc4ccccc4[nH]3)C2)c1 [Example 69, 1-[(2R,4R)-2-(1H-benzimidazol-2-yl)-1-methylpiperidin-4-yl]-3-(5-methylpyridin-3-yl)urea hydrochloride] | 102
N#Cc1ccc(NC(=O)N[C@@H]2CCN(C3CCC3)[C@@H](c3nc4ccccc4[nH]3)C2)cc1 [Example 70, 1-[(2R,4R)-2-(1H-benzimidazol-2-yl)-1-cyclobutyl-piperidin-4-yl]-3-(4-cyanophenyl)urea] | 101
Cc1cc(NC(=O)N[C@@H]2CCN(C)[C@@H](c3nc4ccccc4[nH]3)C2)cnc1C [Example 71, 1-[(2R,4R)-2-(1H-benzimidazol-2-yl)-1-methylpiperidin-4-yl]-3-(5,6-dimethylpyridin-3-yl)urea hydrochloride] | 101
CN1CC[C@@H](NC(=O)c2ccc(N=[N+]=[N-])cc2)C[C@@H]1c1nc2ccccc2[nH]1 [Example 72, 4-azido-N-[(2R,4R)-2-(1H-benzimidazol-2-yl)-1-methylpiperidin-4-yl]benzamide] | 101
CN1CC[C@@H](NC(=O)Nc2ccc(C(F)(F)F)nc2)C[C@@H]1c1nc2ccc(Cl)cc2[nH]1 [Example 73, 1-[(2R,4R)-2-(6-chloro-1H-benzimidazol-2-yl)-1-methylpiperidin-4-yl]-3-[6-(trifluoromethyl)pyridin-3-yl]urea hydrochloride] | 101
CN1CC[C@@H](NC(=O)c2cc(-c3ccncc3)n[nH]2)C[C@@H]1c1nc2ccccc2[nH]1 [Example 74, N-[(2R,4R)-2-(1H-benzimidazol-2-yl)-1-methylpiperidin-4-yl]-3-pyridin-4-yl-1H-pyrazole-5-carboxamide hydrochloride] | 101
CN1CC[C@@H](NC(=O)Nc2ccccc2)C[C@@H]1c1nc2ccccc2[nH]1 [Example 75, 1-[(2R,4R)-2-(1H-benzimidazol-2-yl)-1-methylpiperidin-4-yl]-3-phenylurea hydrochloride] | 100
CN1CC[C@@H](NC(=O)NCc2ccccc2)C[C@@H]1c1nc2ccccc2[nH]1 [Example 76, 1-[(2R,4R)-2-(1H-benzimidazol-2-yl)-1-methylpiperidin-4-yl]-3-benzylurea hydrochloride] | 100
Cc1cc2nc([C@H]3C[C@H](NC(=O)Nc4ccc(C(F)(F)F)nc4)CCN3C)[nH]c2cc1C [Example 77, 1-[(2R,4R)-2-(5,6-dimethyl-1H-benzimidazol-2-yl)-1-methylpiperidin-4-yl]-3-[6-(trifluoromethyl)pyridin-3-yl]urea hydrochloride] | 100
CN1CC[C@@H](NC(=O)Cc2ccc(Cl)s2)C[C@@H]1c1nc2ccccc2[nH]1 [Example 78, N-[(2R,4R)-2-(1H-benzimidazol-2-yl)-1-methylpiperidin-4-yl]-2-(5-chloro-2-thienyl)acetamide hydrochloride] | 99.3
CN1CC[C@@H](NC(=O)c2ccc3c(c2)OCCO3)C[C@@H]1c1nc2ccc(C(F)(F)F)cc2[nH]1 [Example 79, N-{(2R,4R)-1-methyl-2-[6-(trifluoromethyl)-1H-benzimidazol-2-yl]piperidin-4-yl}-2,3-dihydro-1,4-benzodioxine-6-carboxamide hydrochloride] | 99.2
CN1CC[C@@H](NC(=O)Nc2cccnc2)C[C@@H]1c1nc2ccccc2[nH]1 [Example 80, 1-[(2R,4R)-2-(1H-benzimidazol-2-yl)-1-methylpiperidin-4-yl]-3-pyridin-3-ylurea hydrochloride] | 98
CN1CC[C@@H](NC(=O)c2ccc3c(c2)OCCO3)C[C@@H]1c1nc2ccccc2[nH]1 [Example 86, N-[(2R,4R)-2-(1H-benzimidazol-2-yl)-1-methylpiperidin-4-yl]-2,3-dihydro-1,4-benzodioxine-6-carboxamide hydrochloride] | 93.1

Now from value to compound:

inhibition at 2 µM [%] | Compound
97.8 | Cc1ccc(NC(=O)N[C@@H]2CCN(C)[C@@H](c3nc4ccccc4[nH]3)C2)cn1 [Example 81, 1-[(2R,4R)-2-(1H-benzimidazol-2-yl)-1-methylpiperidin-4-yl]-3-(6-methylpyridin-3-yl)urea hydrochloride]
96.8 | O=C(N[C@@H]1CCN(C2CCC2)[C@@H](c2nc3ccccc3[nH]2)C1)c1ccc2c(c1)OCCO2 [Example 82, N-[(2R,4R)-2-(1H-benzimidazol-2-yl)-1-cyclobutyl-piperidin-4-yl]-2,3-dihydro-1,4-benzodioxine-6-carboxamide hydrochloride]
96.1 | COc1ccc(NC(=O)N[C@@H]2CCN(C)[C@@H](c3nc4ccccc4[nH]3)C2)cn1 [Example 83, 1-[(2R,4R)-2-(1H-benzimidazol-2-yl)-1-methylpiperidin-4-yl]-3-(6-methoxypyridin-3-yl)urea hydrochloride]
95.4 | CC(C)N1C[C@H](NC(=O)Nc2ccc(Cl)c(C(F)(F)F)c2)C[C@H]1c1nc2ccccc2[nH]1 [Example 84, 1-[(3R,5S)-5-(1H-benzimidazol-2-yl)-1-isopropyl-pyrrolidin-3-yl]-3-[4-chloro-3-(trifluoromethyl)phenyl]urea]
93.1 | CN1CC[C@@H](NC(=O)NC2CCCC2)C[C@@H]1c1nc2ccccc2[nH]1 [Example 85, 1-[(2R,4R)-2-(1H-benzimidazol-2-yl)-1-methylpiperidin-4-yl]-3-cyclopentylurea hydrochloride]
92.3 | CN1CC[C@@H](NC(=O)c2ccc3c(c2)CCC(=O)N3)C[C@@H]1c1nc2ccccc2[nH]1 [Example 87, N-[(2R,4R)-2-(1H-benzimidazol-2-yl)-1-methylpiperidin-4-yl]-2-oxo-1,2,3,4-tetrahydroquinoline-6-carboxamide hydrochloride]
92.1 | CN1CC[C@@H](NC(=O)Nc2cccc(C#N)c2)C[C@@H]1c1nc2ccccc2[nH]1 [Example 88, 1-[(2R,4R)-2-(1H-benzimidazol-2-yl)-1-methylpiperidin-4-yl]-3-(3-cyanophenyl)urea hydrochloride]
88.2 | O=C(N[C@@H]1CCN(CC2CC2)[C@@H](c2nc3ccccc3[nH]2)C1)c1ccc2c(c1)OCCO2 [Example 89, N-[(2R,4R)-2-(1H-benzimidazol-2-yl)-1-(cyclopropyl-methyl)piperidin-4-yl]-2,3-dihydro-1,4-benzodioxine-6-carboxamide hydrochloride]
87.9 | CN1CC[C@@H](NC(=O)Nc2ccc(-c3ccccc3)s2)C[C@@H]1c1nc2ccccc2[nH]1 [Example 90, 1-[(2R,4R)-2-(1H-benzimidazol-2-yl)-1-methylpiperidin-4-yl]-3-(5-phenyl-2-thienyl)urea hydrochloride]
87.9 | Cc1nc(C(F)(F)F)ccc1C(=O)N[C@@H]1CCN(C)[C@@H](c2nc3ccccc3[nH]2)C1 [Example 91, N-[(2R,4R)-2-(1H-benzimidazol-2-yl)-1-methylpiperidin-4-yl]-2-methyl-6-(trifluoromethyl)nicotinamide hydrochloride]
86.4 | CN1CC[C@@H](NC(=O)c2ccc(-c3cnco3)cc2)C[C@@H]1c1nc2ccccc2[nH]1 [Example 92, N-[(2R,4R)-2-(1H-benzimidazol-2-yl)-1-methylpiperidin-4-yl]-4-(1,3-oxazol-5-yl)benzamide hydrochloride]
